Test results reported in ChEMBL document CHEMBL3792360, “Antibacterial activity of Mannich bases derived from 2-naphthols, aromatic aldehydes and secondary aliphatic amines” (2016).
Values after ≈ are worked out from the molar mass of the structure shown.

Legend:
Type in all cases: functional
[1] = tested on: Staphylococcus aureus; experiment: Antibacterial activity against methicillin-resistant Staphylococcus aureus ATCC 43300 after 16 to 20 hrs by broth microdilution method
[2] = tested on: Enterobacter cloacae; experiment: Antibacterial activity against Enterobacter cloacae CIP 103475 after 16 to 20 hrs by broth microdilution method
[3] = tested on: Enterococcus faecalis; experiment: Antibacterial activity against Enterococcus faecalis ATCC 25912 after 16 to 20 hrs by broth microdilution method
[4] = tested on: Pseudomonas aeruginosa; experiment: Antibacterial activity against Pseudomonas aeruginosa CIP 82118 after 16 to 20 hrs by broth microdilution method
[5] = tested on: Proteus vulgaris; experiment: Antibacterial activity against Proteus vulgaris CIP 104989 after 16 to 20 hrs by broth microdilution method
[6] = tested on: Staphylococcus aureus; experiment: Antibacterial activity against Staphylococcus aureus […] after 16 to 20 hrs by broth microdilution method
[7] = tested on: Citrobacter freundii; experiment: Antibacterial activity against Citrobacter freundii CIP 5732 after 16 to 20 hrs by broth microdilution method
[8] = tested on: Klebsiella pneumoniae; experiment: Antibacterial activity against Klebsiella pneumoniae CIP 53153 after 16 to 20 hrs by broth microdilution method
[9] = tested on: Escherichia coli; experiment: Antibacterial activity against Escherichia coli ATCC 35218 after 16 to 20 hrs by broth microdilution method
[10] = tested on: Escherichia coli; experiment: Antibacterial activity against Escherichia coli ATCC 25922 after 16 to 20 hrs by broth microdilution method

Q: For CC1CCN(C(c2ccccc2)c2c(O)ccc3ccccc23)CC1 (stereo not given), which MIC [1] is on record?
A: > 512 µg/mL

Q: And the MIC [2]?
A: > 512 µg/mL

Q: What about the MIC [3] of the same compound?
A: > 512 µg/mL

Q: And the MIC [4]?
A: > 512 µg/mL

Q: And the MIC [5]?
A: > 512 µg/mL

Q: And the MIC [6]?
A: > 512 µg/mL

Q: And the MIC [7]?
A: > 512 µg/mL

Q: What about the MIC [8] of the same compound?
A: > 512 µg/mL

Q: What about the MIC [9] of the same compound?
A: > 512 µg/mL

Q: And the MIC [10]?
A: > 512 µg/mL

Q: How did the MIC [1] turn out when COc1ccc2ccc(O)c(C(c3cccc4ccccc34)N3CCCCC3)c2c1 (stereo not given) was run?
A: > 512 µg/mL

Q: What about the MIC [2] of the same compound?
A: > 512 µg/mL

Q: And the MIC [3]?
A: > 512 µg/mL

Q: What about the MIC [4] of the same compound?
A: > 512 µg/mL

Q: What about the MIC [5] of the same compound?
A: > 512 µg/mL

Q: And the MIC [6]?
A: > 512 µg/mL

Q: And the MIC [7]?
A: > 512 µg/mL

Q: What about the MIC [8] of the same compound?
A: > 512 µg/mL

Q: And the MIC [9]?
A: > 512 µg/mL

Q: And the MIC [10]?
A: > 512 µg/mL

Q: Which results are given for CN1CCN(C(c2cccs2)c2c(O)ccc3ccccc23)CC1 (stereo not given)?
A: MIC [1]: 32 µg/mL (≈ 94.5 µM); MIC [2]: > 512 µg/mL; MIC [3]: 32 µg/mL (≈ 94.5 µM); MIC [4]: > 512 µg/mL; MIC [5]: > 512 µg/mL; MIC [6]: 32 µg/mL (≈ 94.5 µM); MIC [7]: > 512 µg/mL; MIC [8]: > 512 µg/mL; MIC [9]: > 512 µg/mL; MIC [10]: > 512 µg/mL

Q: With CC1CCN(C(c2ccccc2)c2c(O)ccc3cc(Br)ccc23)CC1 (stereo not given) as the compound, how does the MIC [1] read?
A: > 512 µg/mL

Q: What about the MIC [2] of the same compound?
A: > 512 µg/mL

Q: And the MIC [3]?
A: > 512 µg/mL

Q: What about the MIC [4] of the same compound?
A: > 512 µg/mL

Q: What about the MIC [5] of the same compound?
A: > 512 µg/mL

Q: What about the MIC [6] of the same compound?
A: > 512 µg/mL

Q: And the MIC [7]?
A: > 512 µg/mL

Q: And the MIC [8]?
A: > 512 µg/mL

Q: And the MIC [9]?
A: > 512 µg/mL

Q: What about the MIC [10] of the same compound?
A: > 512 µg/mL

Q: Oc1ccc2ccccc2c1C(c1cccc2ccccc12)N1CCCCC1 (stereo not given) was tested. Which MIC [1] did it give?
A: > 512 µg/mL

Q: What about the MIC [2] of the same compound?
A: > 512 µg/mL

Q: What about the MIC [3] of the same compound?
A: > 512 µg/mL

Q: What about the MIC [4] of the same compound?
A: > 512 µg/mL

Q: And the MIC [5]?
A: > 512 µg/mL

Q: And the MIC [6]?
A: > 512 µg/mL

Q: And the MIC [7]?
A: > 512 µg/mL

Q: And the MIC [8]?
A: > 512 µg/mL

Q: What about the MIC [9] of the same compound?
A: > 512 µg/mL

Q: What about the MIC [10] of the same compound?
A: > 512 µg/mL

Q: Oc1ccc2ccccc2c1C(c1cccs1)N1CCOCC1 (stereo not given) was tested. Which MIC [1] did it give?
A: 32 µg/mL (≈ 98.3 µM)

Q: What about the MIC [2] of the same compound?
A: > 512 µg/mL

Q: And the MIC [3]?
A: 32 µg/mL (≈ 98.3 µM)

Q: And the MIC [4]?
A: > 512 µg/mL

Q: And the MIC [5]?
A: > 512 µg/mL

Q: What about the MIC [6] of the same compound?
A: 32 µg/mL (≈ 98.3 µM)

Q: What about the MIC [7] of the same compound?
A: > 512 µg/mL

Q: What about the MIC [8] of the same compound?
A: > 512 µg/mL

Q: What about the MIC [9] of the same compound?
A: > 512 µg/mL

Q: What about the MIC [10] of the same compound?
A: > 512 µg/mL

Q: How did the MIC [1] turn out when Oc1ccc2cc(Br)ccc2c1C(c1cccs1)N1CCCCC1 (stereo not given) was run?
A: 8 µg/mL (≈ 19.9 µM)

Q: And the MIC [2]?
A: > 512 µg/mL

Q: What about the MIC [3] of the same compound?
A: 16 µg/mL (≈ 39.8 µM)

Q: And the MIC [4]?
A: > 512 µg/mL

Q: And the MIC [5]?
A: > 512 µg/mL

Q: And the MIC [6]?
A: 8 µg/mL (≈ 19.9 µM)

Q: What about the MIC [7] of the same compound?
A: > 512 µg/mL

Q: And the MIC [8]?
A: > 512 µg/mL

Q: What about the MIC [9] of the same compound?
A: > 512 µg/mL

Q: And the MIC [10]?
A: > 512 µg/mL

Q: How did the MIC [1] turn out when COc1ccc2ccc(O)c(C(c3cccs3)N3CCC(C)CC3)c2c1 (stereo not given) was run?
A: 16 µg/mL (≈ 43.5 µM)

Q: And the MIC [2]?
A: > 512 µg/mL

Q: And the MIC [3]?
A: 64 µg/mL (≈ 174 µM)

Q: What about the MIC [4] of the same compound?
A: > 512 µg/mL

Q: And the MIC [5]?
A: > 512 µg/mL

Q: What about the MIC [6] of the same compound?
A: 16 µg/mL (≈ 43.5 µM)

Q: And the MIC [7]?
A: > 512 µg/mL

Q: What about the MIC [8] of the same compound?
A: > 512 µg/mL

Q: What about the MIC [9] of the same compound?
A: > 512 µg/mL

Q: And the MIC [10]?
A: > 512 µg/mL

Q: What does the source list for CC1CCN(C(c2cccc3ccccc23)c2c(O)ccc3ccccc23)CC1 (stereo not given)?
A: MIC [1]: > 512 µg/mL; MIC [2]: > 512 µg/mL; MIC [3]: > 512 µg/mL; MIC [4]: > 512 µg/mL; MIC [5]: > 512 µg/mL; MIC [6]: > 512 µg/mL; MIC [7]: > 512 µg/mL; MIC [8]: > 512 µg/mL; MIC [9]: > 512 µg/mL; MIC [10]: > 512 µg/mL
